From patent publication US20250082592A1, “PHARMACEUTICAL COMPOSITION FOR PREVENTION, ALLEVIATION OR TREATMENT OF SARCOPENIA, CONTAINING ROR-alpha ACTIVATOR JC1-40” (SEOUL NATIONAL UNIVERSITY R & DB FOUNDATION, priority 2021, published 2025)

How the values were obtained:
C2C12 cells [1] = test: Mitochondrial membrane potential, TMRM staining of C2C12 myotubes; format: cell-based; settings: JC1-40 20 μM, 48 hours in differentiation medium, vs solvent control
Method: C2C12 cells (2×10^5 cells/well) were seeded in a 12-well culture plate and cultivated in DMEM (Dulbecco's modified Eagle's medium) medium containing 10% FBS (fetal bovine serum). The C2C12 cells were maintained at 37° C. in a humidified incubator with 5% CO2 and 95% air. After 48 hours of cultivation, the medium was changed to DMEM (Dulbecco's modified Eagle's medium) differentiation medium containing 2% horse serum, and the cells were treated with JC1-40 (20 μM) and solvent (control group). 48 hours after changing the differentiation medium, the mitochondria of the C2C12 cells were stained with Tetramethylrhodamine, Methyl Ester, and Perchlorate (TMRM) 600 nM. After 20 minutes, the medium was replaced with new medium containing TMRM 150 nM, and red fluorescence was observed after 10 minutes.

HeLa cells = test: Mitochondrial quantity, MitoTracker Green staining of HeLa cells; format: cell-based; settings: JC1-40 5 μM and 50 μM, 24 hours, vs solvent control
Method: HeLa cells (4×10^4 cells/well) were seeded in a 12-well culture plate and cultivated overnight in DMEM (Dulbecco's modified Eagle's medium) medium containing 10% FBS (fetal bovine serum). The HeLa cells were maintained at 37° C. in a humidified incubator with 5% CO2 and 95% air. After 24 hours of cultivation, the medium was replaced and JC1-40 (5 μM, 50 μM), and solvent (control group) were treated for 24 hours.

C2C12 cells [2] = test: mRNA expression of mitochondrial constituent genes (SDHA, COX5A, MCAD), real-time PCR; format: cell-based; settings: JC1-40 20 μM, 48 hours
Method: C2C12 cells (8×10^5 cells/dish) were seeded in a 60 mm dish and cultured in DMEM (Dulbecco's modified Eagle's medium) medium containing 10% FBS (fetal bovine serum). C2C12 cells were maintained at 37° C. in a humidified incubator with 5% CO2 and 95% air. After 48 hours of cultivation, the medium was changed to DMEM differentiation medium containing 2% horse serum, and the cells were treated with JC1-40 (20 μM) and solvent (control group). After 48 hours from the replacement of the differentiation medium, RNA was extracted. For extraction, the cells were dissolved with EASY BLUE (Intron, Korea), and isopropanol fractionation and ethanol precipitation were utilized. cDNA was synthesized from each RNA sample, and oligomers amplifying the cDNA of specific genes were utilized, monitoring the expression of R-actin as a control group. More specifically, an mRNA-M-MLV mixture was prepared using M-MLV reverse transcriptase (Invitrogen), and reverse transcription polymerase chain reaction was conducted using a thermal cycler. Subsequently, real-time polymerase chain reaction was performed using the ABI StepOnePlus Real-Time PCR system (Applied Biosystems).

C2C12 cells [3] = test: mRNA expression of mitochondrial biosynthesis regulators (PGC-1α, NRF-1, NRF-2α, TFAM), real-time PCR; format: cell-based; settings: JC1-40 20 μM, 48 hours
Method: C2C12 cells (8×10^5 cells/dish) were seeded in a 60 mm dish and cultured in DMEM (Dulbecco's modified Eagle's medium) containing 10% FBS (fetal bovine serum). The C2C12 cells were maintained at 37° C. in a humidified incubator with 5% CO2 and 95% air. After 48 hours of cultivation, the medium was changed to DMEM differentiation medium containing 2% horse serum, and treated with JC1-40 (20 μM) and solvent (control group). 48 hours after changing to the differentiation medium, RNA was extracted. The RNA extraction method is as described in Example 3. The results of the mRNA expression of mitochondrial biosynthesis regulators PGC-1α(Peroxisome proliferator-activated receptor gamma coactivator 1-alpha), NRF-1 (Nuclear Respiratory Factor 1), NRF-2a (Nuclear Respiratory Factor 2 alpha), and TFAM (Mitochondrial transcription factor A) induced by JC1-40 are shown in FIG. 4A.

C2C12 cells [4] = test: Protein expression of NRF1 and TFAM, Western blotting; format: cell-based; settings: JC1-40 20 μM
Method: Using a method identical to the above, after treating C2C12 cells with the compound JC1-40, the expression of the mitochondrial biosynthesis regulators, NRF1 and TFAM proteins, was analyzed by Western blotting. Specific antibodies for NRF1 (Santa Cruz Biotechnology), TFAM (Santa Cruz Biotechnology), and α-tubulin (Millipore) were also used.

TFAM promoter = TFAM promoter transcriptional activity, human TFAM-Luc reporter luciferase assay in C2C12 cells; format: cell-based; settings: JC1-40 20 μM, 24 hours
Method: C2C12 cells (1×10^5 cells/well) were seeded in a 12-well culture plate and cultured overnight in DMEM containing 10% FBS. The C2C12 cells were maintained at 37° C. in a humidified incubator with 5% CO2 and 95% air. After 24 hours of cultivation, human TFAM-Luc reporter (100 ng) was transfected into C2C12 cells using PolyFect (QIAGEN). After 24 hours post-transfection, the medium was changed to DMEM differentiation medium containing 2% horse serum, and treated with JC1-40 (20 μM) and solvent (control group). 24 hours later, cell lysates were obtained and luciferase activity was analyzed and determined using an analytical luminescence luminometer.

RORα = molecular target: T1, RORα (Mus musculus, UniProt P51448); test: RORα dependency of TFAM expression, si-RORα transfection in C2C12 cells; format: cell-based; settings: JC1-40 20 μM, 48 hours
T1 construct: endogenous in cells; host or cells: C2C12 cells
T1 sequence (P51448 1-523): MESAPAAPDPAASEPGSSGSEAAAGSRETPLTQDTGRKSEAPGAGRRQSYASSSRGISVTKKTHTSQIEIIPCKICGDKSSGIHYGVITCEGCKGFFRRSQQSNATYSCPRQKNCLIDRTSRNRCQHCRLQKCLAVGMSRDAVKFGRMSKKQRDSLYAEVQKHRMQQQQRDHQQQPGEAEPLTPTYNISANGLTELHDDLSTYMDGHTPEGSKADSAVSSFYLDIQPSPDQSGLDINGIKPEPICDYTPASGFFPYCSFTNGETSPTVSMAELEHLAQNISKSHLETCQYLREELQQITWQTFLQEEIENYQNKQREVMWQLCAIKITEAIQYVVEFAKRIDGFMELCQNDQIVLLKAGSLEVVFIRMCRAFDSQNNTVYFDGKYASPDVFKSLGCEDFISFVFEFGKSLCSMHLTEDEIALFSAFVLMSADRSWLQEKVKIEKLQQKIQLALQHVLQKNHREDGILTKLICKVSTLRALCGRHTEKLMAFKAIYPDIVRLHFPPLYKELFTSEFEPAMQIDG
Method: C2C12 cells (8×10^5 cells/dish) were seeded in a 60 mm dish and cultured overnight in DMEM (Dulbecco's modified Eagle's medium) containing 10% FBS (fetal bovine serum). The C2C12 cells were maintained at 37° C. in a humidified incubator with 5% CO2 and 95% air. After 24 hours of cultivation, si-RORα (250 pmoles) and si-GL3 (control group) were transfected into C2C12 cells using Lipofectamine 2000 (Thermo Fisher Scientific). After 24 hours post-transfection, the medium was switched to DMEM differentiation medium containing 2% horse serum, and treated with JC1-40 (20 μM) for 48 hours. The methods for RNA and protein extraction were as previously mentioned.

[5] = test system: male C57BL/6 mice, high-fat diet; test: High-fat diet-induced animal model, gastrocnemius tissue immunofluorescence; format: in vivo; settings: JC1-40 5 mg/kg orally once a day for 5 weeks
Method: To confirm the correlation between the administration of JC1-40, an increase in mitochondrial biosynthesis, and the suppression of sarcopenia, experiments were conducted using a diet-induced animal model. Specifically, male C57BL/6 mice aged 5 weeks were acclimatized in a temperature and humidity-controlled environment for one week and were provided with a high-fat diet (fats derived from lard and soybean oil, 60 kcal % included, Research diets) for 12 weeks. From the 8th week of the diet, JC1-40 was orally administered once a day for 5 weeks at a concentration of 5 mg/kg (FIG. 6A). In detail, an amount of JC1-40 corresponding to the final concentration was measured and added to sterile water containing 0.5% carboxymethyl cellulose, and then uniformly suspended using a mortar and pestle to produce the drug. The dose for each mouse subject was taken and orally administered using a Sonde. The control group was administered sterile water containing 0.5% carboxymethyl cellulose in the same manner. After 12 weeks of diet were completed, the mice were anesthetized, the gastrocnemius tissue was extracted, and it was fixed using a 4% paraformaldehyde solution. The fixed tissue underwent washing, decalcification, and dehydration, and was ultimately made into a paraffin block using paraffin. The created paraffin block was cut into sections with a thickness of 3 μm, and after creating sections, protein expression was confirmed with fluorescence using specific antibodies for COX4 (Cytochrome c oxidase subunit 4, Santa Cruz Biotechnology) and TFAM (Mitochondrial transcription factor A, Santa Cruz Biotechnology).

CNC(=S)NCc1ccc(OCc2ccccc2)cc1 [JC1-40, 1-methyl-3-[(4-phenylmethoxyphenyl)methyl]thiourea]
red fluorescence (TMRM), mitochondrial membrane potential (C2C12 cells [1]): increased
green fluorescence (MitoTracker Green), quantity of mitochondria (HeLa cells): increased in a concentration-dependent manner
mRNA expression of COX5A (C2C12 cells [2]): increased
mRNA expression of MCAD (C2C12 cells [2]): increased
mRNA expression of SDHA (C2C12 cells [2]): increased
mRNA expression of NRF-1 (C2C12 cells [3]): increased
mRNA expression of NRF-2 (C2C12 cells [3]): increased
mRNA expression of PGC-1α (C2C12 cells [3]): increased
mRNA expression of TFAM (C2C12 cells [3]): increased
protein expression of NRF-1 (C2C12 cells [4]): increased
protein expression of TFAM (C2C12 cells [4]): increased
transcriptional activity of the TFAM promoter (luciferase activity) (TFAM promoter): confirmed to be due to the transcriptional activity of the TFAM promoter
increase in TFAM expression with si-RORα (RORα; C2C12 cells transfected with si-RORα (250 pmoles)): did not occur
protein expression of TFAM (RORα; C2C12 cells, si-GL3 control): increased
protein expression of COX4 in gastrocnemius tissue [5]: significantly increased
protein expression of TFAM in gastrocnemius tissue [5]: significantly increased
sarcopenia induced by the high-fat diet [5]: significantly improved
